Measured values reported in ChEMBL document CHEMBL3991601, “The target landscape of clinical kinase drugs” (Science, 2017).
Calls of active or inactive are those of the source. Rule as the data show it, for most assays here: actives have a measured Kd and inactives only a lower limit.

Key:
[1] = molecular target: Calcium/calmodulin-dependent protein kinase kinase 2 (Homo sapiens, UniProt Q96RR4)
[2] = molecular target: Cyclin-dependent kinase 1 (Homo sapiens, UniProt P06493)
[3] = molecular target: Casein kinase I isoform gamma-1 (Homo sapiens, UniProt Q9HCP0)
[4] = molecular target: T1, Ephrin type-B receptor 2 (Homo sapiens, UniProt P29323)
T1 sequence (P29323 whole entry): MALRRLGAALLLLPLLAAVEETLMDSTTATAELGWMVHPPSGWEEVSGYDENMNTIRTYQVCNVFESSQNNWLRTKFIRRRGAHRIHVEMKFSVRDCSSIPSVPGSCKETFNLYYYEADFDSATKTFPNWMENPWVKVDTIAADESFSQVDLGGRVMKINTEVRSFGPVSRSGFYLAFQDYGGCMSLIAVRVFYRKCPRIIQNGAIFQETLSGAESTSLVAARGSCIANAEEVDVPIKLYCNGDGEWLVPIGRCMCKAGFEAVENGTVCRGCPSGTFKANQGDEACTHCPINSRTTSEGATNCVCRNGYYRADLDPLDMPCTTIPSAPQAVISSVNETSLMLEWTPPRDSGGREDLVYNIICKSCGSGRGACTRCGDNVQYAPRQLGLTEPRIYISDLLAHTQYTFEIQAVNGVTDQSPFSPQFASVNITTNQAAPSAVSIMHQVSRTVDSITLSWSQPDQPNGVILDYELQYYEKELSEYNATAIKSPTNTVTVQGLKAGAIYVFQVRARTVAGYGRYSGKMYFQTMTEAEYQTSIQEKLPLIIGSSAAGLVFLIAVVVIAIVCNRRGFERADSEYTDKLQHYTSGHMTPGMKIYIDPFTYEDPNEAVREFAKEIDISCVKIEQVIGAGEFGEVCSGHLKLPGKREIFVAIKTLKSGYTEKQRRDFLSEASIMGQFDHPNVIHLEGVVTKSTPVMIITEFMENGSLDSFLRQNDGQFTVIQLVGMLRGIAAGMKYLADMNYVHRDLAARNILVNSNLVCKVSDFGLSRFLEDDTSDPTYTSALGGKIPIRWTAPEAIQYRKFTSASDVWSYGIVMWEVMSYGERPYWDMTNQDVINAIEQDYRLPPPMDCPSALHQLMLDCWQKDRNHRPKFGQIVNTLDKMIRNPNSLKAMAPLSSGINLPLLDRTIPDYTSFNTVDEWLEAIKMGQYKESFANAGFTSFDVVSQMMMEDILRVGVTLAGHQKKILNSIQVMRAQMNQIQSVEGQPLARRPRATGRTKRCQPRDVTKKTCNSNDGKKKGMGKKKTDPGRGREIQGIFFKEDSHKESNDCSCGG

[5] = molecular target: LIM domain kinase 1 (Homo sapiens, UniProt P53667)
[6] = molecular target: T2, Mitogen-activated protein kinase kinase kinase 6 (Homo sapiens, UniProt O95382)
T2 sequence (O95382 whole entry): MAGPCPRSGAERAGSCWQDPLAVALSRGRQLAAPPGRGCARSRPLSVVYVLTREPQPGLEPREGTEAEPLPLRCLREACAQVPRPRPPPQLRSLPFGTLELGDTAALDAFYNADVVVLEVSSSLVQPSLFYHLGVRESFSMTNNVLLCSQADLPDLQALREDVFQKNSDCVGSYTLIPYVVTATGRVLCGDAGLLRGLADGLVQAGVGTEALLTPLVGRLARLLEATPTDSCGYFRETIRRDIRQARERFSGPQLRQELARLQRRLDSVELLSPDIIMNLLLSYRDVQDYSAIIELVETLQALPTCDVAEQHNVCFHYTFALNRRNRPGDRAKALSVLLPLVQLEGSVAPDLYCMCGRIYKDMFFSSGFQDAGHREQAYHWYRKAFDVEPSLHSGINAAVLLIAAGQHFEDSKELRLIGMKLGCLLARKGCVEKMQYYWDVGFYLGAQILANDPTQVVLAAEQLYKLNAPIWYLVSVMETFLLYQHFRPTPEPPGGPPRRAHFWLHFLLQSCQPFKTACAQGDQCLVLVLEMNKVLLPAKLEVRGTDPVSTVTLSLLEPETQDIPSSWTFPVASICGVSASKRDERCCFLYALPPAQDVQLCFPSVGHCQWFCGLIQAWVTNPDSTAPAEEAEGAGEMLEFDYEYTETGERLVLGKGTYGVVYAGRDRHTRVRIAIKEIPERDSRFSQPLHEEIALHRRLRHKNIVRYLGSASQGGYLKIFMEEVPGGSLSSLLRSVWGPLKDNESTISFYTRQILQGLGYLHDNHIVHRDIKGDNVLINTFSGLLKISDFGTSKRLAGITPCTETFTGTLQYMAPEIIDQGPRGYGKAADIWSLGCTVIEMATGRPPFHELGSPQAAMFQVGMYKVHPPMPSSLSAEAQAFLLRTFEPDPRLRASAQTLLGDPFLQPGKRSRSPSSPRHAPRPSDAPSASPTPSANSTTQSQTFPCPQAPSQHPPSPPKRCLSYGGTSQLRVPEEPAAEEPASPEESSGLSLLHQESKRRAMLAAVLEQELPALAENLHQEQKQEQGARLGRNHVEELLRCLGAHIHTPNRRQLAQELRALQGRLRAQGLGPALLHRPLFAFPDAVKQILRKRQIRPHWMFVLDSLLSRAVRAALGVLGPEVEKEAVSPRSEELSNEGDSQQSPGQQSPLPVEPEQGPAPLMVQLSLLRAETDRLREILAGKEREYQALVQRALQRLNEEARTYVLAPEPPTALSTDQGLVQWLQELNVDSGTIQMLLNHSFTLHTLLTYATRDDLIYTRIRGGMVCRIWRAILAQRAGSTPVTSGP

[7] = molecular target: Mitogen-activated protein kinase 1 (Homo sapiens, UniProt P28482)
[8] = molecular target: Receptor-interacting serine/threonine-protein kinase 3 (Homo sapiens, UniProt Q9Y572)
[9] = molecular target: Serine/threonine-protein kinase 10 (Homo sapiens, UniProt O94804)
[10] = molecular target: TRAF2 and NCK-interacting protein kinase (Homo sapiens, UniProt Q9UKE5)
Also: in the data inactive means no Kd found up to 30 µM.

Receptor-interacting serine/threonine-protein kinase 3, sequence (Q9Y572 whole entry): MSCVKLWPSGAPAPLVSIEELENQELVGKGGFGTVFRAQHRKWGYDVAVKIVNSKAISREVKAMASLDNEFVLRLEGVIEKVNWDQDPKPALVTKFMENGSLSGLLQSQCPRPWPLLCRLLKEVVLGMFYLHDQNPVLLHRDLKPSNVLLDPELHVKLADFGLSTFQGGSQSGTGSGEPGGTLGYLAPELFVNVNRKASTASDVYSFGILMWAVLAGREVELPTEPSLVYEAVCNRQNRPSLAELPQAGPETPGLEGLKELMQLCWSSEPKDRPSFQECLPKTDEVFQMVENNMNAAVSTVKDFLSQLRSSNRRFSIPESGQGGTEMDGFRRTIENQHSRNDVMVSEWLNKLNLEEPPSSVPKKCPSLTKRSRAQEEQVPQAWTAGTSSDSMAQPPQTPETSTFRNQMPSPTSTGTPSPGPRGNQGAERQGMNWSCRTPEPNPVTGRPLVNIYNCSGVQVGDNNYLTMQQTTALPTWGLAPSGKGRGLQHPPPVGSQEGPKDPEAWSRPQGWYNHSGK
Serine/threonine-protein kinase 10, sequence (O94804 whole entry): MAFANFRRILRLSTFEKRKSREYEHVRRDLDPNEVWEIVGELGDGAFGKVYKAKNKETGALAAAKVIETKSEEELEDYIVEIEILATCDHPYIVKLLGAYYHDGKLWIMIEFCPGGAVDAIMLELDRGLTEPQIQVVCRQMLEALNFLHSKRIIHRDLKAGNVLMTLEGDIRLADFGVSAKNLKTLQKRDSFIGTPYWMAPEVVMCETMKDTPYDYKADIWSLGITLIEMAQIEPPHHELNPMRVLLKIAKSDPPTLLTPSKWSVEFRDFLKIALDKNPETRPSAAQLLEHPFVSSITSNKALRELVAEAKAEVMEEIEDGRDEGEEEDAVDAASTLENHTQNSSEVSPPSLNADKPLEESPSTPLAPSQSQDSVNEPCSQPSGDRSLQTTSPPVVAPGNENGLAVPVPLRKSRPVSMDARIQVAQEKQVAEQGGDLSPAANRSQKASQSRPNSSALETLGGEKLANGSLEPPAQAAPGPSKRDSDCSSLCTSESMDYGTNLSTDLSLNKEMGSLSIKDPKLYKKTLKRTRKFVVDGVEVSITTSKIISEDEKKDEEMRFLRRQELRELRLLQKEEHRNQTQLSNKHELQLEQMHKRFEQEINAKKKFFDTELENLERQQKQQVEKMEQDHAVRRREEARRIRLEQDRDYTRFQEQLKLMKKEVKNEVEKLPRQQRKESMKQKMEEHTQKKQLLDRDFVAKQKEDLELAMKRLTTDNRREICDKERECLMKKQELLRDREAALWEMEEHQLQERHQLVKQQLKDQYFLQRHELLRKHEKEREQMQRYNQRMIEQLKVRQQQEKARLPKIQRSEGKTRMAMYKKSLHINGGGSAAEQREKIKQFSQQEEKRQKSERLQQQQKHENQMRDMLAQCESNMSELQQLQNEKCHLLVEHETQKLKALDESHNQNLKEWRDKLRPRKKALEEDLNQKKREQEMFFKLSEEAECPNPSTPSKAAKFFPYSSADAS
Mitogen-activated protein kinase 1, sequence (P28482 whole entry): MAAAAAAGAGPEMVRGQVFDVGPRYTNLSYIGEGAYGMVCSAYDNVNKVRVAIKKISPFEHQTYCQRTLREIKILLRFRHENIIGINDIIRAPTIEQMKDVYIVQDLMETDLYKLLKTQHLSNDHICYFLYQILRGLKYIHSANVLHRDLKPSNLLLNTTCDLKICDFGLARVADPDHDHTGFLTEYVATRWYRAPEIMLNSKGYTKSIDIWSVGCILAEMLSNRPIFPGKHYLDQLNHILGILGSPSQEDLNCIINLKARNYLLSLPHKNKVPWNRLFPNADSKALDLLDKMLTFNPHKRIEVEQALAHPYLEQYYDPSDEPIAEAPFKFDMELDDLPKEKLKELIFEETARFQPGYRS
TRAF2 and NCK-interacting protein kinase, sequence (Q9UKE5 whole entry): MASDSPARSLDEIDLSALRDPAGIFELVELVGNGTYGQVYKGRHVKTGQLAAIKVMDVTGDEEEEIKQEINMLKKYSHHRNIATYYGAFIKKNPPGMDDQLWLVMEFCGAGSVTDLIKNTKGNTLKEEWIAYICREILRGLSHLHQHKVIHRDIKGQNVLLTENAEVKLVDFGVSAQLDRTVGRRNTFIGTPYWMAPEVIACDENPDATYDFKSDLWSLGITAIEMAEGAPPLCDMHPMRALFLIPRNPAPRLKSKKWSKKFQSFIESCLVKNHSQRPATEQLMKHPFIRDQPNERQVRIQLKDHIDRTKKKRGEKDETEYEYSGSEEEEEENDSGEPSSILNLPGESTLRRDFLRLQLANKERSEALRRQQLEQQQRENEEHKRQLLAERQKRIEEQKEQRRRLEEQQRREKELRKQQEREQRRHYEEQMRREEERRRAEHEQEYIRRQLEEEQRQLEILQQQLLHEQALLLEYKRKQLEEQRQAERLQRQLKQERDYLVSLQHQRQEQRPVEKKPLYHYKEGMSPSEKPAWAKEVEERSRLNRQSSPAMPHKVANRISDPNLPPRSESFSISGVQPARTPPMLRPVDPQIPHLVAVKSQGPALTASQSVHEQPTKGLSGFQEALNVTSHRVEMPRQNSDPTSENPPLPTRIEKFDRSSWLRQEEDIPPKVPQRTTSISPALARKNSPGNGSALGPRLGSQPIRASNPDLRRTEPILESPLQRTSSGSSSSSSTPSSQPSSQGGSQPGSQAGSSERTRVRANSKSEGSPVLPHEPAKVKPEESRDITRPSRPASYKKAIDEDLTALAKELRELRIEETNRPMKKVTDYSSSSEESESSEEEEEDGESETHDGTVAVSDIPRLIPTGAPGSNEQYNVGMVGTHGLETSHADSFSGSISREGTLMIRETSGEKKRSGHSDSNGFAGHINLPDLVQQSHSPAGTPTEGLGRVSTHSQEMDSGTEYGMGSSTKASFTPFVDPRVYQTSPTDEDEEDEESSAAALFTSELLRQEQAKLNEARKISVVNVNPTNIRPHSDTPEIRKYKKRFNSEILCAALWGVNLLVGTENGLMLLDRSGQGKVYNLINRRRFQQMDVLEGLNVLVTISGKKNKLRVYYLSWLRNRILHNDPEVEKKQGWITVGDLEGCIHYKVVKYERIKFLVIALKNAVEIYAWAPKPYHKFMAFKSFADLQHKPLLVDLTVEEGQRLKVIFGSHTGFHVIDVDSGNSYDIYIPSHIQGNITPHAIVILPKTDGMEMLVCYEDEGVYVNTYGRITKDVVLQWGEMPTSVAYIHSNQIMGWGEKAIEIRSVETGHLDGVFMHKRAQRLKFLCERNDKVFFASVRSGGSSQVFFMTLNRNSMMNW
LIM domain kinase 1, sequence (P53667 whole entry, the tested form may be a part): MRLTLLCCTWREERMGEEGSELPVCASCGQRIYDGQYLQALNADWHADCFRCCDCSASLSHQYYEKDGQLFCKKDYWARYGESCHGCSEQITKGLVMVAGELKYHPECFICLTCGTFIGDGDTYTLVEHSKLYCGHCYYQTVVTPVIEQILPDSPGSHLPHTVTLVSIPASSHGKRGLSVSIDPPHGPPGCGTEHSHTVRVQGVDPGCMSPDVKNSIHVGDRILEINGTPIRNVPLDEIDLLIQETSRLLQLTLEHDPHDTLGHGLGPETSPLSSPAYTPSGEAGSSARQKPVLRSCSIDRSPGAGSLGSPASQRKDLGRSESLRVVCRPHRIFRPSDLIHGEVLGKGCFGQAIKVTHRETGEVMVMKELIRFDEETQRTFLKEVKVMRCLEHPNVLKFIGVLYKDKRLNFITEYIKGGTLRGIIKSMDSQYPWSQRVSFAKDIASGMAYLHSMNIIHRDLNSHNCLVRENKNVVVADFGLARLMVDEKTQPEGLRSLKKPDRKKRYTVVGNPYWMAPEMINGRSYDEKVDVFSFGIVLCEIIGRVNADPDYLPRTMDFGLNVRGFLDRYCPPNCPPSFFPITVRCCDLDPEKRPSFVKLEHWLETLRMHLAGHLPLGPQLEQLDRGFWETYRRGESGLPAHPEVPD
Calcium/calmodulin-dependent protein kinase kinase 2, sequence (Q96RR4 whole entry): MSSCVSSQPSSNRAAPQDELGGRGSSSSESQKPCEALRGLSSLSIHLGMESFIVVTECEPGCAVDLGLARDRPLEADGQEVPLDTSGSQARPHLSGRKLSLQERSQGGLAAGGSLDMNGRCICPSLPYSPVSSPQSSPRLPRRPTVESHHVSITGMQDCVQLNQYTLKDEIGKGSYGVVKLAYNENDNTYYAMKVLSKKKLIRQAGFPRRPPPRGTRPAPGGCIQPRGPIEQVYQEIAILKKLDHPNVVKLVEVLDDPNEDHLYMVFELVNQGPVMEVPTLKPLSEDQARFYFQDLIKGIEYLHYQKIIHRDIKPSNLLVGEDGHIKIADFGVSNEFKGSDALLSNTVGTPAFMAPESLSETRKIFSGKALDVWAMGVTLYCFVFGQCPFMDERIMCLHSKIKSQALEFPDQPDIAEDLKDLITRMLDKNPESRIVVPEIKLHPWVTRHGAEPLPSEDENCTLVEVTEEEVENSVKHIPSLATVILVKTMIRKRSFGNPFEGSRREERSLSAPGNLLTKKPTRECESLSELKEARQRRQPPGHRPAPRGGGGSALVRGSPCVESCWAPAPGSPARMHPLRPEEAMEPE
Casein kinase I isoform gamma-1, sequence (Q9HCP0 whole entry, canonical isoform): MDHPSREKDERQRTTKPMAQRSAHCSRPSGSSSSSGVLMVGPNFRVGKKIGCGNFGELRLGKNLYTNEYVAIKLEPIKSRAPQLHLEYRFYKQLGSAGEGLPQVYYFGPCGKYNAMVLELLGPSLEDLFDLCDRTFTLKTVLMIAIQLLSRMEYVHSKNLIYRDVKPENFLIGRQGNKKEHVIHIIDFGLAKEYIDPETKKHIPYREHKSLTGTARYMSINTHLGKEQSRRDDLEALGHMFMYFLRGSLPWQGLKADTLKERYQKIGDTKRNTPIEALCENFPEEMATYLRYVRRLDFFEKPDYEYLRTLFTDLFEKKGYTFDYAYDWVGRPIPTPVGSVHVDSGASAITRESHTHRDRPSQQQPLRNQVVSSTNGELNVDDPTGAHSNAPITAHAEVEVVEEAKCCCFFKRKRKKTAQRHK

Compound | Kd [1] | Kd [2] | Kd [3] | Kd [4] | Kd [5] | Kd [6] | Kd [7] | Kd [8] | Kd [9] | Kd [10]
C[C@@H](Oc1cc(C(=O)Nc2ccc(C(=O)N3CCN(C)CC3)cc2)nnc1N)c1c(Cl)ccc(F)c1Cl | > 30 µM (inactive) | > 30 µM (inactive) | > 30 µM (inactive) | > 30 µM (inactive) | > 30 µM (inactive) | > 30 µM (inactive) | > 30 µM (inactive) | > 30 µM (inactive) | > 30 µM (inactive) | > 30 µM (inactive)
C[C@H]1CNCCCN1S(=O)(=O)c1cccc2cncc(F)c12 | > 30 µM (inactive) | > 30 µM (inactive) | > 30 µM (inactive) | > 30 µM (inactive) | > 30 µM (inactive) | > 30 µM (inactive) | > 30 µM (inactive) | > 30 µM (inactive) | > 30 µM (inactive) | > 30 µM (inactive)
Nc1ncnc2c1c(-c1cccc(OCc3ccccc3)c1)cn2[C@H]1C[C@@H](CN2CCC2)C1 [AEW-541] | > 30 µM (inactive) | > 30 µM (inactive) | > 30 µM (inactive) | > 30 µM (inactive) | > 30 µM (inactive) | > 30 µM (inactive) | > 30 µM (inactive) | 6.45 µM (active) | > 30 µM (inactive) | > 30 µM (inactive)
Cc1nc(NC(=O)N2CCC[C@H]2C(N)=O)sc1-c1ccnc(C(C)(C)C(F)(F)F)c1 [ALPELISIB] | > 30 µM (inactive) | > 30 µM (inactive) | > 30 µM (inactive) | > 30 µM (inactive) | > 30 µM (inactive) | > 30 µM (inactive) | > 30 µM (inactive) | > 30 µM (inactive) | > 30 µM (inactive) | > 30 µM (inactive)
Cc1csc(-c2nnc(Nc3ccc(Oc4ncccc4-c4ccnc(N)n4)cc3)c3ccccc23)c1 [AMG-900] | > 30 µM (inactive) | > 30 µM (inactive) | > 30 µM (inactive) | > 30 µM (inactive) | > 30 µM (inactive) | > 30 µM (inactive) | > 30 µM (inactive) | > 30 µM (inactive) | > 30 µM (inactive) | > 30 µM (inactive)
C=CC(=O)Nc1cc2c(Nc3ccc(F)c(Cl)c3)ncnc2cc1C#CC(C)(C)N1CCN(C)CC1 [AV-412 FREE BASE] | > 30 µM (inactive) | > 30 µM (inactive) | > 30 µM (inactive) | > 30 µM (inactive) | > 30 µM (inactive) | > 30 µM (inactive) | > 30 µM (inactive) | > 30 µM (inactive) | 28.6 µM (active) | > 30 µM (inactive)
COc1cc([C@@H]2c3cc4c(cc3[C@H](O)[C@H]3COC(=O)[C@@H]23)OCO4)cc(OC)c1OC [AXL-1717] | > 30 µM (inactive) | > 30 µM (inactive) | > 30 µM (inactive) | > 30 µM (inactive) | > 30 µM (inactive) | > 30 µM (inactive) | > 30 µM (inactive) | > 30 µM (inactive) | > 30 µM (inactive) | > 30 µM (inactive)
NC(=O)Nc1cc(-c2cccc(F)c2)sc1C(=O)N[C@H]1CCCNC1 [AZD-7762] | > 30 µM (inactive) | > 30 µM (inactive) | > 30 µM (inactive) | > 30 µM (inactive) | > 30 µM (inactive) | > 30 µM (inactive) | > 30 µM (inactive) | > 30 µM (inactive) | 0.36 µM (active) | 0.094 µM (active)
Cc1cc(C(=O)NOCCO)c(Nc2ccc(I)cc2F)n(C)c1=O [AZD-8330] | > 30 µM (inactive) | > 30 µM (inactive) | > 30 µM (inactive) | > 30 µM (inactive) | > 30 µM (inactive) | > 30 µM (inactive) | > 30 µM (inactive) | > 30 µM (inactive) | > 30 µM (inactive) | > 30 µM (inactive)
Cn1cnc2c(F)c(Nc3ccc(Br)cc3F)c(C(=O)NOCCO)cc21 [BINIMETINIB] | > 30 µM (inactive) | > 30 µM (inactive) | > 30 µM (inactive) | > 30 µM (inactive) | > 30 µM (inactive) | > 30 µM (inactive) | > 30 µM (inactive) | > 30 µM (inactive) | > 30 µM (inactive) | > 30 µM (inactive)
CCn1c(C(=O)N(C2CC2)C2CC2)cc2c3c(ncn3C)c(Nc3cc(C)n(C)n3)nc21 [BMS-911543] | > 30 µM (inactive) | > 30 µM (inactive) | > 30 µM (inactive) | > 30 µM (inactive) | > 30 µM (inactive) | > 30 µM (inactive) | > 30 µM (inactive) | > 30 µM (inactive) | > 30 µM (inactive) | > 30 µM (inactive)
COc1cc2ncnc(Oc3cccc(NC(=O)Nc4cc(C(C)(C)C(F)(F)F)on4)c3)c2cc1OC [CEP-32496] | > 30 µM (inactive) | > 30 µM (inactive) | > 30 µM (inactive) | > 30 µM (inactive) | > 30 µM (inactive) | > 30 µM (inactive) | > 30 µM (inactive) | 0.245 µM | > 30 µM (inactive) | > 30 µM (inactive)
Cc1cc(Nc2ncc(Cl)c(Nc3ccccc3S(=O)(=O)C(C)C)n2)c(OC(C)C)cc1C1CCNCC1 [CERITINIB] | 5.43 µM (active) | > 30 µM (inactive) | > 30 µM (inactive) | > 30 µM (inactive) | > 30 µM (inactive) | > 30 µM (inactive) | > 30 µM (inactive) | > 30 µM (inactive) | > 30 µM (inactive) | > 30 µM (inactive)
COc1c(OCCCN2CCOCC2)ccc2c1N=C(NC(=O)c1cnc(N)nc1)N1CCN=C21 [COPANLISIB] | > 30 µM (inactive) | > 30 µM (inactive) | > 30 µM (inactive) | > 30 µM (inactive) | > 30 µM (inactive) | > 30 µM (inactive) | > 30 µM (inactive) | > 30 µM (inactive) | > 30 µM (inactive) | > 30 µM (inactive)
COCC(=O)NC/C=C/c1ccc2ncnc(Nc3ccc(Oc4ccc(C)nc4)c(C)c3)c2c1 [CP-724714] | > 30 µM (inactive) | > 30 µM (inactive) | > 30 µM (inactive) | > 30 µM (inactive) | > 30 µM (inactive) | > 30 µM (inactive) | > 30 µM (inactive) | > 30 µM (inactive) | > 30 µM (inactive) | > 30 µM (inactive)
